A short description of the assay: Complexation of phosphate in NaH2PO4 solution, Centricon 30 filtrate phosphorus by ICP. The assay is classed as binding.

Molecules are shown by their SMILES.

Drawing on patent US20020064511A1, “Water-soluble polymers for the reduction of dietary phosphate or oxalate absorption” (priority 1996, published 2002), this text covers phosphorus removed for one molecule.

Protocol: In each of four tubes, 0.54 mL of this solution (0.19 mmol of monomer units) were mixed with 10 mL of 0.0207 M NaH2PO4 and appropriate amounts of HCl and NaOH to make solutions of pH 3, pH 4.5, pH 6, and pH 7.5. Tubes with the same pH were also prepared with 10 mL of 0.0207 M NaH2PO4and 0.50 mL of 1.5 M CaCO, (0.749 mmol). Control tubes were also prepared with the sodium phosphate solution and the adjustment of pH. All tubes were diluted to 12 mL with water. The tubes were agitated for one hour. The solutions were then placed in separate Centricon™ 30 molecular weight cutoff tubes and centrifuged for 30 minutes. The filtrate collected was analyzed for phosphorus by inductively coupled plasma spectroscopy.
In each of four tubes, 0.67 mL of this solution (0.18 mmol of monomer units) were mixed with 10 mL of 0.0207 M NaH2PO4 and appropriate amounts of HCl and NaOH to make solutions of pH 3, pH 4.5, pH 6, and pH 7.5. Tubes with the same pH were also prepared with 10 mL of 0.0207 M NaH2PO4 and 0.50 mL of 1.5 M CaCO3 (0.749 mmol). Control tubes were also prepared with the sodium phosphate solution and the adjustment of pH. All tubes were diluted to 12 mL with water. The tubes were agitated for one hour. The solutions were then placed in separate Centricon™ 30 molecular weight cutoff tubes and centrifuged for 30 minutes. The filtrate collected was analyzed for phosphorus by inductively coupled plasma spectroscopy.

With `O=C([O-])[O-].[Ca+2]` [calcium carbonate], the phosphorus removed was 16% (pH 3, 10 mL 0.0207 M NaH2PO4, one hour); 13% (pH 4.5, 10 mL 0.0207 M NaH2PO4, one hour); 9% (pH 6, 10 mL 0.0207 M NaH2PO4, one hour); 7% (pH 7.5, 10 mL 0.0207 M NaH2PO4, one hour).
